These compounds were tested on σ1 receptor and the μ-opiod receptor (assay: μ and σ1 dual binding: combined class from the Ki of both radioligand assays). Details: combined class for Ki-μ and Ki-σ1; transfected HEK-293 membranes (σ1), transfected CHO-K1 cell membranes (μ).
Set-up: species or system human; key to μ and σ1 dual binding: +: Both Ki-μ and Ki-σ1>=500 nM; ++: One Ki<500 nM while the other Ki is >=500 nM; +++: Both Ki-μ and Ki-σ1<500 nM; ++++: Both Ki-μ and Ki-σ1<100 nM
In short: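 Classes combine both Ki values, split at 500 nM and 100 nM. Human μ-opioid binding used 1 nM [3H]-DAMGO on CHO-K1 membranes (27 °C, 60 min, pH 7.4, naloxone 10 μM for NSB); human σ1 used 5 nM [3H](+)-pentazocine on HEK-293 membranes (37 °C, 120 min, pH 8, haloperidol 10 μM for NSB).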

Row | SMILES | μ and σ1 dual binding
1 | CC(C)S(=O)(=O)Nc1cccc(C2CCN(Cc3cn([C@H]4c5ccccc5C[C@@H]4O)nn3)CC2)c1 [Example 105, N-(3-(1-((1-((1S,2S)-2-hydroxy-2,3-dihydro-1H-inden-1-yl)-1H-1,2,3-triazol-4-yl)methyl)piperidin-4-yl)phenyl)propane-2-sulfonamide] | ++
2 | CC(C)(O)COc1ccc(-n2cc(CN3CCC(c4cccc(O)c4)CC3)nn2)cc1 [Example 106, 3-(1-((1-(4-(2-hydroxy-2-methylpropoxy)phenyl)-1H-1,2,3-triazol-4-yl)methyl)piperidin-4-yl)phenol] | ++
3 | CS(=O)(=O)Nc1cccc([C@@H]2CCN(Cc3cn(-c4ccccc4)nn3)C[C@@H]2O)c1 [Example 110, N-(3-((3R,4S)-3-hydroxy-1-((1-phenyl-1H-1,2,3-triazol-4-yl)methyl)piperidin-4-yl)phenyl)methanesulfonamide] | ++
4 | CCS(=O)(=O)Nc1cccc(C2CCN(Cc3cn(Cc4ccccn4)nn3)CC2)c1 [Example 112, N-(3-(1-((1-(pyridin-2-ylmethyl)-1H-1,2,3-triazol-4-yl)methyl)piperidin-4-yl)phenyl)ethanesulfonamide] | ++
5 | CC(C)S(=O)(=O)Nc1cccc(C2CCN(Cc3cn(Cc4cccc(C(F)(F)F)n4)nn3)CC2)c1 [Example 117, N-(3-(1-((1-((6-(trifluoromethyl)pyridin-2-yl)methyl)-1H-1,2,3-triazol-4-yl)methyl)piperidin-4-yl)phenyl)propane-2-sulfonamide] | ++
6 | Cc1cccc(Cn2cc(CN3CCC(c4cccc(NS(=O)(=O)C(C)C)c4)CC3)nn2)n1 [Example 118, N-(3-(1-((1-((6-methylpyridin-2-yl)methyl)-1H-1,2,3-triazol-4-yl)methyl)piperidin-4-yl)phenyl)propane-2-sulfonamide] | ++
7 | CS(=O)(=O)Nc1cccc(C2CCN(Cc3nnn4c3-c3ccccc3C4)CC2)c1 [Example 119, N-(3-(1-((8H-[1,2,3]triazolo[5,1-a]isoindol-3-yl)methyl)piperidin-4-yl)phenyl)methanesulfonamide] | ++
8 | Oc1cccc(C2CCN(Cc3nnn4c3-c3ccccc3C4)CC2)c1 [Example 120, 3-(1-((8H-[1,2,3]triazolo[5,1-a]isoindol-3-yl)methyl)piperidin-4-yl)phenol] | ++
9 | CC(C)S(=O)(=O)Nc1cccc(C2CCN(Cc3cn(Cc4ncccc4C(F)(F)F)nn3)CC2)c1 [Example 121, N-(3-(1-((1-((3-(trifluoromethyl)pyridin-2-yl)methyl)-1H-1,2,3-triazol-4-yl)methyl)piperidin-4-yl)phenyl)propane-2-sulfonamide] | ++
10 | CC(C)S(=O)(=O)Nc1cccc(C2CCN(Cc3cn(Cc4ccc(C(F)(F)F)cn4)nn3)CC2)c1 [Example 122, N-(3-(1-((1-((5-(trifluoromethyl)pyridin-2-yl)methyl)-1H-1,2,3-triazol-4-yl)methyl)piperidin-4-yl)phenyl)propane-2-sulfonamide] | ++
11 | CC(C)S(=O)(=O)Nc1cccc([C@@H]2CCN(Cc3cn(Cc4ccccc4)nn3)C[C@@H]2O)c1 [Example 123, N-(3-((3R,4S)-1-((1-benzyl-1H-1,2,3-triazol-4-yl)methyl)-3-hydroxypiperidin-4-yl)phenyl)propane-2-sulfonamide] | ++
12 | CC(C)S(=O)(=O)Nc1cccc(C2CCN(Cc3cn(Cc4ccc(C(F)(F)F)nc4)nn3)CC2)c1 [Example 124, N-(3-(1-((1-((6-(trifluoromethyl)pyridin-3-yl)methyl)-1H-1,2,3-triazol-4-yl)methyl)piperidin-4-yl)phenyl)propane-2-sulfonamide] | ++
13 | CC(C)S(=O)(=O)Nc1cccc([C@@H]2CCN(Cc3cn(Cc4ccccn4)nn3)C[C@@H]2O)c1 [Example 125, N-(3-((3R,4S)-3-hydroxy-1-((1-(pyridin-2-ylmethyl)-1H-1,2,3-triazol-4-yl)methyl)piperidin-4-yl)phenyl)propane-2-sulfonamide] | ++
14 | CC(C)S(=O)(=O)Nc1cccc(C2CCN(Cc3cn(Cc4cc(N=[N+]=[N-])ccn4)nn3)CC2)c1 [Example 128] | ++
15 | CC(C)S(=O)(=O)Nc1cccc(C2CCN(Cc3cn(Cc4cnc(C(F)(F)F)nc4)nn3)CC2)c1 [Example 129, N-(3-(1-((1-((2-(trifluoromethyl)pyrimidin-5-yl)methyl)-1H-1,2,3-triazol-4-yl)methyl)piperidin-4-yl)phenyl)propane-2-sulfonamide] | ++
16 | CC(C)S(=O)(=O)Nc1cccc(C2CCN(Cc3cn(C(CO)c4ccccc4)nn3)CC2)c1 (centres unmarked) [Example 130, N-(3-(1-((1-(2-hydroxy-1-phenylethyl)-1H-1,2,3-triazol-4-yl)methyl)piperidin-4-yl)phenyl)propane-2-sulfonamide] | ++
17 | CS(=O)(=O)Nc1cccc(C2CCN(Cc3cn(C(CO)c4ccccc4)nn3)CC2)c1 (centres unmarked) [Example 131, N-(3-(1-((1-(2-hydroxy-1-phenylethyl)-1H-1,2,3-triazol-4-yl)methyl)piperidin-4-yl)phenyl)methanesulfonamide] | ++
18 | CC(C)S(=O)(=O)Nc1cccc(C2CCN(Cc3cn(Cc4ccc(F)cn4)nn3)CC2)c1 [Example 135, N-(3-(1-((1-((5-fluoropyridin-2-yl)methyl)-1H-1,2,3-triazol-4-yl)methyl)piperidin-4-yl)phenyl)propane-2-sulfonamide] | ++
19 | c1ccc(Cn2cc(CN3CCC(c4cccc(-c5ncc[nH]5)c4)CC3)nn2)nc1 [Example 139, 2-((4-((4-(3-(1H-imidazol-2-yl)phenyl)piperidin-1-yl)methyl)-1H-1,2,3-triazol-1-yl)methyl)pyridine] | ++

Same assay, conditions: transfected HEK-293 membranes (σ1), transfected CHO-K1 cell membranes (μ)

Row | SMILES | Ki range for both μ and σ1 (dual-binding class) [µM]
20 | Oc1ccc(-n2cc(CN3CCC(c4cccc(O)c4)CC3)nn2)cc1 [Example 107, 3-(1-((1-(4-hydroxyphenyl)-1H-1,2,3-triazol-4-yl)methyl)piperidin-4-yl)phenol] | < 0.1
21 | CCNC(=O)Nc1cccc(C2CCN(Cc3cn(Cc4ccccn4)nn3)CC2)c1 [Example 111, 1-ethyl-3-(3-(1-((1-(pyridin-2-ylmethyl)-1H-1,2,3-triazol-4-yl)methyl)piperidin-4-yl)phenyl)urea] | ≥ 0.5
22 | COc1cccc(Cn2cc(CN3CCC(c4cccc(NS(=O)(=O)C(C)C)c4)CC3)nn2)n1 [Example 113] | < 0.1
23 | CC(C)S(=O)(=O)Nc1cccc(C2CCN(Cc3cn(Cc4ncccc4F)nn3)CC2)c1 [Example 114, N-(3-(1-((1-((3-fluoropyridin-2-yl)methyl)-1H-1,2,3-triazol-4-yl)methyl)piperidin-4-yl)phenyl)propane-2-sulfonamide] | < 0.5
24 | CC(C)S(=O)(=O)Nc1cccc(C2CCN(Cc3cn(Cc4cccc(F)n4)nn3)CC2)c1 [Example 116, N-(3-(1-((1-((6-fluoropyridin-2-yl)methyl)-1H-1,2,3-triazol-4-yl)methyl)piperidin-4-yl)phenyl)propane-2-sulfonamide] | < 0.5
25 | Oc1cccc(C2CCN(Cc3cn(Cc4cccc(F)n4)nn3)CC2)c1 [Example 132, 3-(1-((1-((6-fluoropyridin-2-yl)methyl)-1H-1,2,3-triazol-4-yl)methyl)piperidin-4-yl)phenol] | < 0.5
26 | Oc1cccc(C2CCN(Cc3cn(Cc4ccc(F)cn4)nn3)CC2)c1 [Example 133, 3-(1-((1-((5-fluoropyridin-2-yl)methyl)-1H-1,2,3-triazol-4-yl)methyl)piperidin-4-yl)phenol] | < 0.5
27 | Oc1cccc(C2CCN(Cc3cn(Cc4ncccc4F)nn3)CC2)c1 [Example 134, 3-(1-((1-((3-fluoropyridin-2-yl)methyl)-1H-1,2,3-triazol-4-yl)methyl)piperidin-4-yl)phenol] | < 0.5
28 | Oc1cc(C2CCN(Cc3cn(Cc4ccccn4)nn3)CC2)ccc1F [Example 136, 2-fluoro-5-(1-((1-(pyridin-2-ylmethyl)-1H-1,2,3-triazol-4-yl)methyl)piperidin-4-yl)phenol] | < 0.5
29 | Oc1ccc(F)c(C2CCN(Cc3cn(Cc4ccccn4)nn3)CC2)c1 [Example 137, 4-fluoro-3-(1-((1-(pyridin-2-ylmethyl)-1H-1,2,3-triazol-4-yl)methyl)piperidin-4-yl)phenol] | < 0.5
30 | CNS(=O)(=O)c1cccc(C2CCN(Cc3cn(Cc4ccccn4)nn3)CC2)c1 [Example 138, N-methyl-3-(1-((1-(pyridin-2-ylmethyl)-1H-1,2,3-triazol-4-yl)methyl)piperidin-4-yl)benzenesulfonamide] | ≥ 0.5
31 | NS(=O)(=O)c1cccc(C2CCN(Cc3cn(-c4ccccc4)nn3)CC2)c1 [Example 140, 3-(1-((1-phenyl-1H-1,2,3-triazol-4-yl)methyl)piperidin-4-yl)benzenesulfonamide] | ≥ 0.5
32 | NS(=O)(=O)c1cccc(C2CCN(Cc3cn(Cc4ccccn4)nn3)CC2)c1 [Example 141, 3-(1-((1-(pyridin-2-ylmethyl)-1H-1,2,3-triazol-4-yl)methyl)piperidin-4-yl)benzenesulfonamide] | ≥ 0.5

Reference: US9981942B2, “Piperidine derivatives having multimodal activity against pain” (LABORATORIOS DEL DR. ESTEVE S.A., priority 2013, dated 2018)
